This is an account of results in patent US20100003217A1, “Compounds and Pharmaceutical Compositions for the Treatment of Viral Infections” (priority 2008, published 2010).

Where two headings read alike, the source gives them in different places.

The nature of the data set: Metabolite profile in rat liver. It counts as in vivo, male Sprague-Dawley rats. The conditions noted are these: for Percent of Dose, Liver 24 h: after [14C]Compound 1; for concentration at 2 h / concentration at 6 h / concentration at 24 h: male, Sprague-Dawley, rat, liver. As to the method: Homogenates were prepared on dry ice in 70% methanol-30% water containing 20 mM EDTA and 20 mM EGTA (about 1× (w/v) weight of the liver) and were stored frozen. Pooled liver samples were prepared for all groups by combining a fixed percentage of the total weight of each individual animal sample homogenate for each group. Each pooled liver homogenate (3.77-5.02 g) was placed in a 50-mL polypropylene centrifuge tube and 16.0 mL of methanol:water (70:30) was added. The sample was vortexed for one minute, and then centrifuged at 11200×g for 20 minutes. The supernatant was transferred to a tube and total volume was measured. The extraction procedure was repeated three additional times. Radioactivity of each supernatant was determined by LSC of duplicate aliquots (100 μL each) for extraction recovery. Subsamples of all four extracts from each sample were taken for proportionate pooling. For Group 1, the subsamples were pooled before concentration and, for Group 2, each subsample was concentrated separately and then pooled due to the larger volumes involved. Each extract was completely dried or reduced to approximately 100 μL. Reconstitution was accomplished with methanol (20 μL) and sufficient volume of the aqueous mobile phase of HPLC method 2 such that the total volume of each reconstituted sample was 500 μL. Duplicate aliquots of the reconstituted samples were analyzed by LSC. Each sample was analyzed by HPLC method 2.
Percent of the administered dose (% AD) for parent drug and each metabolite at each collection period=(% of the total radioactivity in the sample attributed to the metabolite)*(total radioactivity expressed as % of the administered dose, recovered during the corresponding collection period).
Microgram equivalents/g for parent drug or metabolite at each collection period (% radioactivity for each metabolite)*(total μg equivalents/g during the corresponding collection period).
Liver homogenates were pooled for each time point for both dose groups by proportional mixing according to the weight of the samples from individual animals. The pooled samples were extracted and prepared for HPLC analysis as described above. The abundance of metabolites was determined as a % of the administered dose and as μg equivalent/g. The data are presented in Table 54, Table 55, Table 56 and Table 57, respectively. Metabolites R^1, R^8 and R^9 were characterized based on retention time.

Setting [1] is: group 1 (IV dose) pooled liver, 2 h.
[2] abbreviates: group 1 (IV dose) pooled liver, 2 h (Table 56).
Where [3] appears, read: group 1 (IV dose) pooled liver, 6 h.
[4] abbreviates: group 1 (IV dose) pooled liver, 6 h (Table 56).
The mark [5] stands for this setting: group 1 (IV dose) pooled liver, 24 h.
Where [6] appears, read: group 1 (IV dose) pooled liver, 24 h (Table 56).
The mark [7] stands for this setting: group 2 (PO dose) pooled liver, 2 h.
Setting [8] is: group 2 (PO dose) pooled liver, 2 h (Table 57).
Setting [9] is: group 2 (PO dose) pooled liver, 6 h.
Setting [10] is: group 2 (PO dose) pooled liver, 6 h (Table 57).
The mark [11] stands for this setting: group 2 (PO dose) pooled liver, 24 h.
The mark [12] stands for this setting: group 2 (PO dose) pooled liver, 24 h (Table 57).
[13] abbreviates: iv, 50 mg/kg, group 1 (IV dose) pooled liver, 2 h, read-out: liver concentration as μg equivalents/g.
The mark [14] stands for this setting: iv, 50 mg/kg, group 1 (IV dose) pooled liver, 6 h, read-out: liver concentration as μg equivalents/g.
The mark [15] stands for this setting: iv, 50 mg/kg, group 1 (IV dose) pooled liver, 24 h, read-out: liver concentration as μg equivalents/g.
Setting [16] is: po, 100 mg/kg, group 2 (PO dose) pooled liver, 2 h, read-out: liver concentration as μg equivalents/g.
Setting [17] is: po, 100 mg/kg, group 2 (PO dose) pooled liver, 6 h, read-out: liver concentration as μg equivalents/g.
Setting [18] is: po, 100 mg/kg, group 2 (PO dose) pooled liver, 24 h, read-out: liver concentration as μg equivalents/g.
Where [19] appears, read: rat liver, IV dose, 2, 6 and 24 h.
The mark [20] stands for this setting: rat liver, PO dose, 2, 6 and 24 h.
Where [21] appears, read: rat liver, IV dose, 2 h (Group 1A).
[22] abbreviates: rat liver, IV dose, 6 h (Group 1B).

In the case of `C[C@@]1(O)[C@H](O)[C@@H](CO)O[C@H]1n1cnc2c(=O)[nH]c(N)nc21` [2′-C-methyl guanosine, 9-(2-C-methyl-β-D-ribofuranosyl)guanine, reference compound], the “Percent of Dose, Liver 24 h” value by setting is: (IV) 0.42% of Dose; (Oral) 0.09% of Dose. Besides, the “% AD” value is 2.14 % AD under setting [1]; 1.48 % AD under setting [3]; 0.42 % AD under setting [5]; 0.15 % AD under setting [7]; 0.32 % AD under setting [9]; 0.09 % AD under setting [11]. Besides, the “% HPLC (percent of HPLC peak area in the sample extract)” value runs as follows: under setting [1], 13.8%; under setting [2], 13.8%; under setting [3], 14.6%; under setting [4], 14.6%; under setting [5], 23.9%; under setting [6], 23.9%. In addition, the “% HPLC (percent of HPLC peak area in the sample extract)” value reads like this: under setting [7], 77.5%; under setting [8], 77.5%; under setting [9], 85.0%; under setting [10], 85.0%; under setting [11], 53.9%; under setting [12], 53.9%. In addition, the concentration at 2 h reads like this: under setting [13], 28400 ng/g; under setting [16], 3940 ng/g. The concentration at 6 h came to 20000 ng/g under setting [14] and 8760 ng/g under setting [17]. The concentration at 24 h reads like this: under setting [15], 5560 ng/g; under setting [18], 2200 ng/g. For the same molecule, the “% of the total radioactivity in liver” value runs as follows: under setting [19], 14-24%; under setting [20], 54-85%.

Regarding `C[C@@]1(O)[C@H](O)[C@@H](COP(=O)(O)O)O[C@H]1n1cnc2c(=O)[nH]c(N)nc21` [Compound 5, [(2R)-2-methyl-β-D-ribofuranosyl]guanine 5′-monophosphate], the “Percent of Dose, Liver 24 h” value (IV) is reported as 1.05% of Dose. In addition, the “% AD” value by setting is: under setting [1], 9.73 % AD; under setting [3], 6.39 % AD; under setting [5], 1.05 % AD. Further, the “% HPLC (percent of HPLC peak area in the sample extract)” value runs as follows: under setting [1], 62.6%; under setting [2], 62.6%; under setting [3], 63.1%; under setting [4], 63.1%; under setting [5], 59.9%; under setting [6], 59.9%. Further, the concentration at 2 h under setting [13] amounted to 129000 ng/g. In addition, the concentration at 6 h under setting [14] amounted to 86200 ng/g. In addition, the concentration at 24 h under setting [15] was found to be 13900 ng/g. For the same molecule, the “% of the total radioactivity in liver” value reads like this: under setting [19], 60-63%; under setting [20], “not detected”. Also, the “liver metabolite, % of the administered dose” value (“liver metabolite, %” below) reads like this: under setting [21], 9.7 % AD; under setting [22], 6.4 % AD; (rat liver, IV dose, 24 h) 1.1 % AD.

As for `C[C@@]1(O)[C@H](O)[C@@H](COP(=O)(O)OP(=O)(O)O)O[C@H]1n1cnc2c(=O)[nH]c(N)nc21` [Compound 6, [(2R)-2-methyl-β-D-ribofuranosyl]guanine 5′-diphosphate], the “Percent of Dose, Liver 24 h” value is, setting by setting: (IV) 0.29% of Dose; (Oral) 0.08% of Dose. For the same molecule, the “% AD” value under setting [1] worked out at 3.35 % AD; the “% AD” value under setting [3] came to 2.04 % AD; the “% AD” value under setting [5] is on record as 0.29 % AD; the “% AD” value under setting [7] was 0.04 % AD; the “% AD” value under setting [9] was determined as 0.06 % AD; the “% AD” value under setting [11] is on record as 0.08 % AD. The “% HPLC (percent of HPLC peak area in the sample extract)” value was determined as 21.6% under setting [1]; 21.6% under setting [2]; 20.1% under setting [3]; 20.1% under setting [4]; 16.2% under setting [5]; 16.2% under setting [6]. The “% HPLC (percent of HPLC peak area in the sample extract)” value reads like this: under setting [7], 22.6%; under setting [8], 22.6%; under setting [9], 15.0%; under setting [10], 15.0%; under setting [11], 46.1%; under setting [12], 46.1%. For the same molecule, the concentration at 2 h runs as follows: under setting [13], 44400 ng/g; under setting [16], 1150 ng/g; (po, 100 mg/kg, rat liver, PO dose, 2 h, read-out: liver metabolite concentration) 1100 ng/g. The concentration at 6 h stood at 27500 ng/g under setting [14]; 1550 ng/g under setting [17]; 1600 ng/g (po, 100 mg/kg, rat liver, PO dose, 6 h, read-out: liver metabolite concentration). The concentration at 24 h turned out to be 3770 ng/g under setting [15]; 1880 ng/g under setting [18]; 1900 ng/g (po, 100 mg/kg, rat liver, PO dose, 24 h, read-out: liver metabolite concentration). For the same molecule, the “% of the total radioactivity in liver” value is recorded as 16-22% under setting [19] and 15-46% under setting [20]. Moreover, the “liver metabolite, %” value worked out at 3.4 % AD under setting [21]; 2.0 % AD under setting [22]; 0.29 % AD (rat liver, IV dose, 24 h); 0.3 % AD (rat liver, IV dose, 24 h, listed as diphosphate); 0.04 % AD (rat liver, PO dose, 2 h); 0.06 % AD (rat liver, PO dose, 6 h). For the same molecule, under “rat liver, PO dose, 24 h”, the “liver metabolite, %” value was found to be 0.08 % AD.

Turning to `C[C@@]1(O)[C@H](O)[C@@H](COP(=O)(O)OP(=O)(O)OP(=O)(O)O)O[C@H]1n1cnc2c(=O)[nH]c(N)nc21` [Compound 7, [(2R)-2-methyl-β-D-ribofuranosyl]guanine 5′-triphosphate], the “% AD” value runs as follows: under setting [1], 0.05 % AD; under setting [3], 0.04 % AD. Also, the “% HPLC (percent of HPLC peak area in the sample extract)” value is listed as 0.29% under setting [1], 0.29% under setting [2], 0.35% under setting [3] and 0.35% under setting [4]. In addition, the concentration at 2 h was 600 ng/g under setting [13] and 600 ng/g (iv, 50 mg/kg, rat liver, IV dose, 2 h (Group 1A), read-out: liver metabolite concentration). For the same molecule, the concentration at 6 h runs as follows: under setting [14], 480 ng/g; (iv, 50 mg/kg, rat liver, IV dose, 6 h (Group 1B), read-out: liver metabolite concentration) 480 ng/g. Further, the “liver metabolite, %” value is listed as 0.05 % AD under setting [21] and 0.04 % AD under setting [22].
